Assay results taken from patent US20060193772A1, “Drugs for treating cancer” (priority 2003, published 2006).

System: multiple myeloma cell line, LP-1 cells
Experiment: LP-1 viable cell number (WST-1), doxorubicin and KM 1468 administration methods (Example 3)
Type: cell-based
Settings: 1 μmol/L doxorubicin, 1 μg/mL KM 1468, cells only = 100%
Protocol: Multiple myeloma cell line, LP-1 cells (DSMZ ACC41) were seeded in a 96-well culture plate in an amount of 100 μL/well (10,000 cells). Doxorubicin and anti-IGF monoclonal antibody […] were added, and the mixture was cultured at 37° C. for 3 days. The addition of doxorubicin and KM 1468 to the medium was conducted by the following three methods.
Method 1: Cells were cultured in 150 μL of a medium in which doxorubicin was solely added on day 1, and in 200 μL of a medium in which doxorubicin and KM 1468 were added on days 2 and 3.
Method 2: Cells were cultured in 150 μL of a medium in which KM 1468 were solely added on day 1, and in 200 μL of a medium in which doxorubicin and KM 1468 were added on days 2 and 3.
Method 3: Cells were cultured in a medium comprising doxorubicin and KM 1468 (an amount of the medium is 150 μL on day 1 and 200 μL each on days 2 and 3) for three days.
In all of the foregoing methods, doxorubicin and KM 1468 were added so that the final concentrations of doxorubicin and KM 1468 became 1 μmol/L and 1 μg/mL, respectively.
After the culturing, cell proliferation reagent WST-1 (manufactured by Roche) was added in an amount of 20 μL/well, and the mixture was cultured at 37° C. for from 2 to 3 hours. OD450 was measured with microplate reader M-SPmax 250 (manufactured by Molecular Devices). The number of viable cells after the treatment with the agent was expressed as a relative value when OD450 in which cells were solely added was regarded as 100%.

## COc1cccc2c1C(=O)c1c(O)c3c(c(O)c1C2=O)C[C@@](O)(C(=O)CO)C[C@@H]3O[C@H]1C[C@H](N)[C@H](O)[C@H](C)O1 [Doxorubicin]
Method 1 group: doxorubicin on day 1, doxorubicin and KM 1468 on days 2 and 3
  Relative value of cell number: 40%
Method 2 group: KM 1468 on day 1, doxorubicin and KM 1468 on days 2 and 3
  Relative value of cell number: 57%
Method 3 group: doxorubicin and KM 1468 for three days
  Relative value of cell number: 44%
